A short description of series [1]: Cmax of other small molecule drugs in plasma, preparation versus original drug solution (Experimental Example 7). In kind it is in vivo. As to conditions: male SD rats, subcutaneous; for Cmax: Sprague-Dawley (SD), rat, sc; for Phospholipid Span sustained release preparation Cmax: drug in preparation made by prescription and method of Example 1. As for the experimental part:
In vivo experiments in animals were used to investigate the effects of other small molecule drugs on inhibiting burst release. […] The obtained phospholipid Span sustained release preparation and original drug solution of the other small molecule drugs (each drug was formulated with water, ethanol or DMSO for injection, depending on the specific solubility) were injected subcutaneously into male SD rats, whose blood was taken at regular intervals. The C. of the small molecule drugs in plasma was determined by high-performance liquid chromatography-mass spectrometry (LC-MS/MS), thereby investigating the effect on inhibiting burst release.

Series [2] in a line: In vivo pharmacokinetics of dabigatran etexilate preparations, subcutaneous (Experimental Example 5). Conditions: male, Sprague-Dawley (SD), rat, plasma, sc, SD rats, solution 11.4 mg/kg, gels 80 mg/kg. The method, then: At the scheduled time point, blood was taken from the rat eye and placed in a heparin sodium anticoagulated test tube. After the sample was processed, the blood concentration was measured by LC-MS/MS.

Series [3] is described as follows: In vivo pharmacokinetics of 2,4-dinitrophenol preparations, subcutaneous (Experimental Example 4). Details: species or system male SD rats. The method, then: The product of Example 1 was injected subcutaneously into male SD rats, whose blood was taken at regular intervals. The content of 2,4-dinitrophenol in plasma was determined by high-performance liquid chromatography-mass spectrometry (LC-MS/MS), thereby investigating the sustained release effect thereof.
200-220 g of SD rats were randomly divided into three groups, solution group (Test Example 4 in Experimental Example 1), phospholipid Span gel group (Example 1), and high-concentration phospholipid gel group (prepared according to patent CN102526753A). There were 6 rats in each group and they were injected subcutaneously at the dosage of 12.5 mg/kg. At the scheduled time point, blood was taken from the rat eye and placed in a heparin sodium anticoagulated test tube. After the sample was processed, the blood concentration was measured by LC-MS/MS injection.
The fomulation of the high-concentration phospholipid gel sustained release preparation (patent CN102526753A) is as follows: […]

The nature of series [4]: Blood concentration of 2,4-dinitrophenol in rats after subcutaneous dosing, surfactant comparison (Experimental Example 1). As to conditions: Sprague-Dawley (SD), rat, in vivo, sc, 12.5 mg/kg 2,4-dinitrophenol, LC-MS/MS, surfactant 3.5 g varied. The method, then: The following test was carried out in accordance with the preparation method of Example 1, except that the Span in the prescription of Example 1 was replaced with glyceryl dioleate (Test Example 1), Tween (Test Example 2) and sucrose acetate isobutyrate (Test Example 3). At the same time, the original drug solution group was designed (Test Example 4, 50 mg of the drug was dissolved in 10 mL of phosphate buffer (pH=7.6), and a solution of the same concentration as in Example 1 was prepared).
200-220 g of SD rats were randomly divided into five groups, 6 rats in each group, and were administered subcutaneously with 12.5 mg/kg dosage of 2,4-dinitrophenol (Example 1, Test Example 1, Test Example 2, Test Example 3 and Test Example 4). At the scheduled time point, blood was taken from the rat eye and placed in a heparin sodium anticoagulated test tube. After the sample was processed, the blood concentration was measured by LC-MS/MS.

[5] abbreviates: drug in preparation made by prescription and method of Example 1, read-out: Phospholipid Span sustained release preparation Cmax.
Setting [6] is: original drug solution in water, ethanol or DMSO for injection.
Where [7] appears, read: in vivo, drug in preparation made by prescription and method of Example 1, read-out: Phospholipid Span sustained release preparation Cmax.

Usually AUC(0-t) stands for exposure summed from dosing to a finite time, without extrapolation to infinity. By Tmax is commonly meant the time at which the peak concentration occurs. As usually defined, the half-life is the time needed for the level to fall by half in the phase considered. A higher half-life goes with slow loss.

Structures can show the parent of a compound that is named as a salt.

As for `CC(=O)Oc1ccccc1C(=O)O` [Aspirin], in series [1] (setting [5]), the Cmax is 14600 ± 3120 ng/mL.
On the same count and under the same terms, under `NC(=O)N1c2ccccc2C=Cc2ccccc21` [Carbamazepine] stands 4460 ± 570 ng/mL.
`C[C@@H]1C[C@H]2[C@@H]3CCC4=CC(=O)C=C[C@]4(C)[C@@]3(F)[C@@H](O)C[C@]2(C)[C@@]1(O)C(=O)CO` [Dexamethasone]: the Cmax in series [1] (male, drug in preparation made by prescription and method of Example 1, read-out: Phospholipid Span sustained release preparation Cmax) came to 130 ± 50 ng/mL; in series [1] (male, original drug solution in water, ethanol or DMSO for injection, read-out: Original drug Cmax) it was 530 ± 120 ng/mL.
Take `COc1cccc2c1C(=O)c1c(O)c3c(c(O)c1C2=O)C[C@@](O)(C(=O)CO)C[C@@H]3O[C@H]1C[C@H](N)[C@H](O)[C@H](C)O1` [Doxorubicin]: in series [1] (setting [5]), the Cmax is 30 ± 10 ng/mL.
As to `C/C=C1\[C@H]2C=C(C)C[C@]1(N)c1ccc(=O)[nH]c1C2` [Huperzine A], the “Phospholipid Span sustained release preparation Cmax” value in series [1] is 1330 ± 220 ng/mL. The “Original drug Cmax” value in series [1] (setting [6]) amounted to 13870 ± 2860 ng/mL.
For `NS(=O)(=O)c1cc2c(cc1C(F)(F)F)NCNS2(=O)=O` [Hydroflumethiazido] the same measures were 870 ± 520 ng/mL and 5780 ± 2060 ng/mL.
On to `CN(C)C(=N)N=C(N)N` [Metformin hydrochloride], for which the Cmax in series [1] (setting [5]) turned out to be 820 ± 90 ng/mL.
The same measure, in the same setting: in the case of `COCCOC(=O)C1=C(C)NC(C)=C(C(=O)OC(C)C)C1c1cccc([N+](=O)[O-])c1` (stereo not shown) [Nimodipine] it was 1510 ± 670 ng/mL.
For `CCC1(c2ccccc2)C(=O)NC(=O)NC1=O` [Phenobarbital], in series [1] (setting [7]), the Cmax is 2510 ± 680 ng/mL.
Turning to `CCCCCCOC(=O)NC(=N)c1ccc(NCc2nc3cc(C(=O)N(CCC(=O)OCC)c4ccccn4)ccc3n2C)cc1` [Solution group, dabigatran etexilate], in series [2], the AUC(0-t) was determined as 1970 ± 474 ng·h/mL, the Cmax is 244 ± 31.5 ng/mL, the Tmax was 3.18 ± 0.21 h and the half-life was 5.21 ± 0.83 h. In addition, in series [2] (read-out: MRT0-t), the MRT last came out at 7.86 ± 1.14 h. For the same compound, in series [3] (SD rats, subcutaneous, 12.5 mg/kg, 2,4-dinitrophenol), the “AUC (0→∞)” value stood at 10.19 ± 1.11 mg·days/L.
Take `O=[N+]([O-])c1ccc(O)c([N+](=O)[O-])c1` [Test Example4, 2,4-dinitrophenol]: the Cmax in series [4] was 54500 ng/mL; in series [3] (male, Sprague-Dawley (SD), rat, in vivo, sc, 12.5 mg/kg, rats, subcutaneous, same dose, 2,4-dinitrophenol) it was ~54500 ng/mL. Also, the “Duration of drug release” value in series [3] (rats, same dose, original drug group) came to 24 h.
For `Cn1c(=O)c2[nH]cnc2n(C)c1=O` [theophylline], the Cmax in series [1] (setting [7]) came to 1540 ± 320 ng/mL.
